Like-named read-outs stand apart in the source and are kept apart here. Starred links: 1 amine or outer side, 2 acyl side, 3 side chain; linkers in the order of their positions; H or OH if unused. Positions of bridges follow the written chain, without caps; N, C: chain ends. Non-standard residues stand in square brackets, D forms with d. Residues, ends and D or L forms follow the SMILES beside them. Groups on a side chain read outwards from the residue. *: point of attachment. DOTA = O=C(O)CN1CCN(CC(=O)O)CCN(CC(=O)*)CCN(CC(=O)O)CC1; Trp(5-OH) = N[C@@H](Cc1c[nH]c2ccc(O)cc12)C(=O)O; Piperazinyl(4-CH2COOH) = O=C(O)CN1CCN(*)CC1; NMePhe(4-F) = CN[C@@H](Cc1ccc(F)cc1)C(=O)O; NMehPhe = CN[C@@H](CCc1ccccc1)C(=O)O; Adipoyl = O=C(CCCCC(=O)[*:2])[*:1]; Aad = N[C@@H](CCCC(=O)O)C(=O)O; Gly(cPr) = N[C@H](C(=O)O)C1CC1; NMeK = CN[C@@H](CCCCN)C(=O)O; NMeDap = CN[C@@H](CN)C(=O)O; CO = O=C([*:1])[*:2]
Columns and labels:
Type in all cases: binding
human HER2 (23-652) [1] = target: T1, human HER2 (23-652) (Homo sapiens, UniProt P04626); experiment: TR-FRET competition assay for peptide potency, human HER2; design: towards human HER2 (23-652) and mouse HER2 (23-653); made in house; host or cells: mammalian cells
human HER2 (23-652) [2] = target: T1, human HER2 (23-652); experiment: Surface plasmon resonance (SPR) for assessment of peptide affinity, human HER2; design: towards human HER2 (23-652) and mouse HER2 (23-653); made in house; conditions: SPR, human HER2 extracellular domain, 25° C., 1:1 binding model; read-out: huHER2-SPR-ONC KD
How it was run: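 Binding kinetics fitted from sensorgrams with 280 s peptide association then 3000 s dissociation (30 uL/min), using HER2 (23-652) either directly immobilized (SA/CM5) or anti-Fc-captured; 3 M magnesium chloride used for regeneration.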

mouse HER2 (23-653) [3] = target: T2, mouse HER2 (23-653) (Mus musculus, UniProt P70424); experiment: Surface plasmon resonance (SPR) for assessment of peptide affinity, mouse HER2; design: mouse HER2 (23-653) using a Cy5 labeled peptide as a probe; made in house; conditions: SPR, mouse HER2 extracellular domain, 25° C., 1:1 binding model; read-out: moHER2-SPR-ONC KD
Description: Each protein was immobilized either onto a SA sensorchip (Cytiva, BR-1005-31) or CM5 sensorchip (Cytiva, BR-1005-30) to a density of 800-2000 RU.

mouse HER2 (23-653) [4] = target: T2, mouse HER2 (23-653); experiment: TR-FRET competition assay for peptide potency, mouse HER2; design: mouse HER2 (23-653) using a Cy5 labeled peptide as a probe; made in house; host or cells: mammalian cells
[5] = TR-FRET competition with Cy5 labeled peptide probe, 0.1 nM mouse HER2, 24 h incubation, read-out: moHER2 TR-FRET IC50
[6] = TR-FRET competition with Cy5 labeled peptide probe, 0.1 nM human HER2, 24 h incubation, read-out: huHER2 TR-FRET IC50
[7] = value in parentheses (**): recalculated after further repetition, read-out: huHER2 TR-FRET IC50, recalculated value achieved after further repetition
[8] = value in parentheses (**): recalculated after further repetition, read-out: moHER2 TR-FRET IC50, recalculated value achieved after further repetition

Row | Kd (human HER2 (23-652) [2]) [nM] | Kd (mouse HER2 (23-653) [3]) [nM] | IC50 (mouse HER2 (23-653) [4]; [5]) [nM] | IC50 (human HER2 (23-652) [1]; [6]) [nM] | IC50 (human HER2 (23-652) [1]; [7]) [nM] | IC50 (mouse HER2 (23-653) [4]; [8]) [nM] | Structure (SMILES) | IC50 (human HER2 (23-652) [1]; read-out: huHER2 TR-FRET IC50) [nM]
1 | < 0.1 | < 0.1 | < 0.1 | – | – | – | CC(=O)NCCCC[C@H]1C(=O)N[C@@H](Cc2c[nH]c3ccc(O)cc23)C(=O)N[C@@H](Cc2c[nH]c3ccccc23)C(=O)N[C@@H](C2CC2)C(=O)N(C)[C@H](C(=O)N(C)[C@@H](Cc2ccc(F)cc2)C(=O)N[C@@H](CCCCNC(=O)CCC(C(=O)O)N2CCN(CC(=O)O)CCN(CC(=O)O)CC2)C(N)=O)CNC(=O)CCC[C@H](NC(C)=O)C(=O)N[C@@H](Cc2ccc(O)cc2)C(=O)N[C@@H](CO)C(=O)N(C)[C@@H](CCc2ccccc2)C(=O)N1C (stereo partly drawn) [Example B13] | < 0.1
2 | 1150 | 799 | 422 | 236 | 164 | 434 | CC(=O)NCCCC[C@H]1C(=O)N[C@@H](Cc2c[nH]c3ccc(O)cc23)C(=O)N[C@@H](Cc2c[nH]c3ccccc23)C(=O)N[C@@H](C2CC2)C(=O)N(C)[C@H](C(=O)N(C)[C@@H](Cc2ccc(F)cc2)C(=O)N[C@@H](CCCCNC(=O)CN2CCN(CC(=O)O)CCN(CC(=O)O)CCN(CC(=O)O)CC2)C(N)=O)CNC(=O)CCC[C@H](NC(C)=O)C(=O)N[C@@H](Cc2ccc(O)cc2)C(=O)N[C@@H](CCCCNC(=O)N2CCN(CC(=O)O)CC2)C(=O)N(C)[C@@H](CCc2ccccc2)C(=O)N1C [Example C7] (Ac-[Aad]YK([CO-Piperazinyl(4-CH2COOH)])[NMehPhe][NMeK](Ac)[Trp(5-OH)]W[Gly(cPr)][NMeDap][NMePhe(4-F)]K(DOTA)-NH2; lactam 1-9) | –
3 | < 0.1 | < 0.1 | 0.1 | < 0.1 | – | – | CC(=O)NCCCC[C@H]1C(=O)N[C@@H](Cc2c[nH]c3ccc(O)cc23)C(=O)N[C@@H](Cc2c[nH]c3ccccc23)C(=O)N[C@@H](C2CC2)C(=O)N(C)[C@H](C(=O)N(C)[C@@H](Cc2ccc(F)cc2)C(=O)N[C@@H](CCCCNC(=O)CN2CCN(CC(=O)O)CCN(CC(=O)O)CCN(CC(=O)O)CC2)C(N)=O)CNC(=O)CCC[C@H](NC(=O)CCC(=O)O)C(=O)N[C@@H](Cc2ccc(O)cc2)C(=O)N[C@@H](CO)C(=O)N(C)[C@@H](CCc2ccccc2)C(=O)N1C [Example C11] | –
4 | < 0.1 | 0.2 | 0.3 | < 0.1 | – | – | CC(=O)NCCCC[C@H]1C(=O)N[C@@H](Cc2c[nH]c3ccc(O)cc23)C(=O)N[C@@H](Cc2c[nH]c3ccccc23)C(=O)N[C@@H](C2CC2)C(=O)N(C)[C@H](C(=O)N(C)[C@@H](Cc2ccc(F)cc2)C(=O)N[C@@H](CCCCNC(=O)CN2CCN(CC(=O)O)CCN(CC(=O)O)CCN(CC(=O)O)CC2)C(N)=O)CNC(=O)CCCCC(=O)N[C@@H](Cc2ccc(O)cc2)C(=O)N[C@@H](CO)C(=O)N(C)[C@@H](CCc2ccccc2)C(=O)N1C [Example C14] (YS[NMehPhe][NMeK](Ac)[Trp(5-OH)]W[Gly(cPr)][NMeDap][NMePhe(4-F)]K(DOTA)-NH2; linker N-8 via Adipoyl) | –
5 | < 0.1 | < 0.1 | 0.2 | < 0.1 | – | – | CC(=O)NCCCC[C@H]1C(=O)N[C@@H](Cc2c[nH]c3ccc(O)cc23)C(=O)N[C@@H](Cc2c[nH]c3ccccc23)C(=O)N[C@@H](C2CC2)C(=O)N(C)[C@H](C(=O)N(C)[C@@H](Cc2ccc(F)cc2)C(=O)N[C@@H](CCCCNC(=O)CN2CCN(CC(=O)O)CCN(CC(=O)O)CCN(CC(=O)O)CC2)C(N)=O)CNC(=O)CCC[C@H](NC(=O)CO)C(=O)N[C@@H](Cc2ccc(O)cc2)C(=O)N[C@@H](CO)C(=O)N(C)[C@@H](CCc2ccccc2)C(=O)N1C [Example C15] | –
6 | 47 | 39 | 76 | 62 | – | 49 | CC(=O)NCCCC[C@H]1C(=O)N[C@@H](Cc2c[nH]c3ccc(O)cc23)C(=O)N[C@@H](Cc2c[nH]c3ccccc23)C(=O)N[C@@H]([C@H](C)O)C(=O)N(C)[C@H](C(=O)N(C)[C@@H](Cc2ccc(F)cc2)C(=O)N[C@@H](CCCCNC(=O)N2CCN(CC(=O)O)CC2)C(=O)N[C@H](CCCCNC(=O)CN2CCN(CC(=O)O)CCN(CC(=O)O)CCN(CC(=O)O)CC2)C(N)=O)CNC(=O)CC[C@H](NC(C)=O)C(=O)N[C@@H](Cc2ccc(O)cc2)C(=O)N[C@@H](CO)C(=O)N(C)[C@@H](CCc2ccccc2)C(=O)N1C [Example C23] | –
7 | 0.6 | 2 | 6.1 | – | 0.9 | 3.7 | CC(=O)NCCCC[C@H]1C(=O)N[C@@H](Cc2c[nH]c3ccc(O)cc23)C(=O)N[C@@H](Cc2c[nH]c3ccccc23)C(=O)N[C@@H]([C@H](C)O)C(=O)N(C)[C@H](C(=O)N(C)[C@@H](Cc2ccc(F)cc2)C(=O)N[C@@H](CCCCNC(=O)CN2CCN(CC(=O)O)CCN(CC(=O)O)CCN(CC(=O)O)CC2)C(N)=O)CNC(=O)CC[C@H](NC(C)=O)C(=O)N[C@@H](Cc2ccc(O)cc2)C(=O)N[C@@H](CO)C(=O)N(C)[C@@H](CCc2ccccc2)C(=O)N1C [Example C25] | –

Row | Structure (SMILES) | Kd (human HER2 (23-652) [2]) [nM] | Kd (mouse HER2 (23-653) [3]) [nM] | IC50 (mouse HER2 (23-653) [4]; [5]) [nM] | IC50 (human HER2 (23-652) [1]; [6]) [nM] | IC50 (human HER2 (23-652) [1]; [7]) [nM] | IC50 (mouse HER2 (23-653) [4]; [8]) [nM] | IC50 (human HER2 (23-652) [1]; read-out: huHER2 TR-FRET IC50) [nM]
8 | CC(=O)N[C@H]1CCCC(=O)NC[C@@H](C(=O)N(C)[C@@H](Cc2ccc(F)cc2)C(=O)N[C@@H](CCCCNC(=O)CN2CCN(CC(=O)O)CCN(CC(=O)O)CCN(CC(=O)O)CC2)C(N)=O)N(C)C(=O)[C@H](C2CC2)NC(=O)[C@H](Cc2c[nH]c3ccccc23)NC(=O)[C@H](Cc2c[nH]c3ccc(O)cc23)NC(=O)[C@H](CCCCNC(=O)CO)N(C)C(=O)[C@H](CCc2ccccc2)N(C)C(=O)[C@H](CO)NC(=O)[C@H](Cc2ccc(O)cc2)NC1=O [Example B5] | < 0.1 | 0.1 | 0.2 | – | – | – | < 0.1
9 | CC(=O)N[C@H]1CCCC(=O)NC[C@@H](C(=O)N(C)[C@@H](Cc2ccc(F)cc2)C(=O)N[C@@H](CCCCNC(=O)CN2CCN(CC(=O)O)CCN(CC(=O)O)CCN(CC(=O)O)CC2)C(N)=O)N(C)C(=O)[C@H]([C@H](C)O)NC(=O)[C@H](Cc2c[nH]c3ccccc23)NC(=O)[C@H](Cc2c[nH]c3ccc(O)cc23)NC(=O)[C@H](CCCCNC(=O)CO)N(C)C(=O)[C@H](CCc2ccccc2)N(C)C(=O)[C@H](CO)NC(=O)[C@H](Cc2ccc(O)cc2)NC1=O [Example B6] | 0.5 | 1.2 | 1.1 | – | – | – | 0.3
10 | CC(=O)N[C@H]1CCCC(=O)NC[C@@H](C(=O)N(C)[C@@H](Cc2ccc(F)cc2)C(=O)N[C@@H](CCCCNC(=O)CN2CCN(CC(=O)O)CCN(CC(=O)O)CCN(CC(=O)O)CC2)C(N)=O)N(C)C(=O)[C@H]([C@H](C)O)NC(=O)[C@H](Cc2c[nH]c3ccccc23)NC(=O)[C@H](Cc2c[nH]c3ccc(O)cc23)NC(=O)[C@H](CCCCNC(=O)CCO)N(C)C(=O)[C@H](CCc2ccccc2)N(C)C(=O)[C@H](CO)NC(=O)[C@H](Cc2ccc(O)cc2)NC1=O [Example B7] | 0.4 | 0.8 | 1.3 | – | – | – | 0.4
11 | CC(=O)NCCCC[C@H]1C(=O)N[C@@H](Cc2c[nH]c3ccc(O)cc23)C(=O)N[C@H](Cc2c[nH]c3ccccc23)C(=O)N[C@@H](C2CC2)C(=O)N(C)[C@H](C(=O)N(C)[C@@H](Cc2ccc(F)cc2)C(=O)N[C@@H](CCCCNC(=O)CN2CCN(CC(=O)O)CCN(CC(=O)O)CCN(CC(=O)O)CC2)C(N)=O)CNC(=O)CCC[C@H](NC(C)=O)C(=O)N[C@@H](Cc2ccc(O)cc2)C(=O)N[C@@H](CO)C(=O)N(C)[C@@H](CCc2ccccc2)C(=O)N1C [Example B9] | 5110 | > 6000 | > 1000 | – | – | – | > 1000
